In patent publication US20240324679A1, “METHODS AND DEVICES FOR CONTROLLING THE TEMPERATURE OF A DRUG FOIL SUBSTRATE TO GENERATE AN AEROSOL” (ALEXZA PHARMACEUTICALS, INC., priority 2021, published 2024):
Structures can show the parent of a compound that is named as a salt.

Key:
[1] = Vaporization of apomorphine HCl film from drug foil substrate, Heat Source 2 (chemical heat package, Device 2); format: physicochemical; settings: 0.44 mg/cm^2 coating, airflow ~30 L/min
Source text: A 100 mm long device such as that in FIG. 1B, the same shape as that of the Adasuve® device, moulded from PermaStat® resin (antistatic material).
A 47.2×47.2×0.38 mm 304-stainless steel drug foil substrate is attached to a chemical heat package connected to Device 2.
In chemical heat package devices, an exothermic thermite reaction from the reactants inside of the heat package rapidly propagated (˜ 0.1 s) and generated heat nearly instantaneously, which vaporized the drug film. The reactants are calibrated to heat the drug foil substrate to a given temperature. Upper and lower housings were welded prior to vaporization. Devices were actuated with a constant airflow of ˜ 30 L/min.
(§1) […] was coated on 2.27 cm^2 (0.44 mg/cm^2) on the drug foil substrate of Heat Source 1 or 2 and heated to the temperatures specified in the table below.

[2] = Vaporization of apomorphine HCl film from drug foil substrate, Heat Source 1 (testing electric heating, Device 1); format: physicochemical; settings: 0.44 mg/cm^2 coating, airflow ~30 L/min
Experimental: Device 1 has an air inlet and air outlet and a 1 F capacitor (Phoenix Gold Titanium series) to be discharged to resistively heat the substrate (<0.2 sec) and facilitate rapid aerosol formation with a cross-foil airflow of ˜ 30 L/min. Calibration for temperature versus applied voltage was determined with a thermocouple spot-welded to the foil surface.
A 12.7×63.5, 0.127 mm 304-stainless steel drug foil substrate attached to Device 1 with connexions to receive electrical power from an electrical source. Devices were actuated with a constant airflow of ˜ 30 L/min. An example is depicted in FIG. 1D.
as §1

[3] = Heat Source 2, substrate temp. 310 °C
[4] = Heat Source 2, substrate temp. 330 °C
[5] = Heat Source 1, substrate temp. 260 °C
[6] = Heat Source 1, substrate temp. 290 °C
[7] = Heat Source 1, substrate temp. 310 °C
[8] = Heat Source 1, substrate temp. 320 °C

For `CN1CCc2cccc3c2[C@H]1Cc1ccc(O)c(O)c1-3` [apomorphine HCl], the “% Vaporization” value [1, 3] was 48.32 ± 16.77%, the “Aerosol Purity (%)” value [1, 3] was 91.71 ± 1.62% and the “% Vaporization” value [1, 4] was 61.58 ± 2.07%. The “Aerosol Purity (%)” value [1, 4] was 87.51 ± 0.18%, the “% Vaporization” value ([1]; Heat Source 2, substrate temp. 400 °C) was 49.07 ± 1.12% and the “% Vaporization” value [2, 5] was 40.57 ± 9.34%. The “Aerosol Purity (%)” value [2, 5] was 98.35 ± 0.64%, the “% Vaporization” value [2, 6] was 58.03 ± 12.15% and the “Aerosol Purity (%)” value [2, 6] was 96.45 ± 0.93%. The “% Vaporization” value [2, 7] was 59.69 ± 0.34%, the “Aerosol Purity (%)” value [2, 7] was 94.92 ± 1.12% and the “% Vaporization” value [2, 8] was 66.14 ± 0.95%. The “Aerosol Purity (%)” value [2, 8] was 90.89 ± 0.78%.
